Source: PMC5462101 (Future medicinal chemistry, 2015)
Values joined by “and” are separate entries in the source; they are usually repeats but may differ in a detail not shown here. Equal entries are not always repeated.

Assays:
[1] = Reducing ability in DPPH assay; conditions: compound 100 μM
Protocol: Previous work has shown that pterins, their dihydro- and their tetrahydro-derivatives can each be antioxidants or pro-oxidants, depending on the particular conditions. In the present study, several assays were used to assess in vitro antioxidant activity in order to obtain representative information; each method involves the generation of a different radical.
Determination of reducing activity using 1,1-diphenyl-2-picrylhydrazyl radical (DPPH)
To a solution of DPPH in absolute ethanol was added an equal volume of the compound to be tested dissolved in DMSO (20 µL). From a stock solution (10 mM) was prepared a final solution of 100 µM for evaluation of the compounds. The absorbance at 517 nm was recorded after 20 and 60 min at room temperature (Table 2).

[2] = Competition with DMSO for hydroxyl radicals; conditions: compound at 100 µM, Fe3+/ascorbic acid, DMSO 33 mM
Protocol: Competition of the novel pteridine derivatives with dimethyl sulfoxide for hydroxyl radicals was measured. […] The majority of the derivatives were excellent scavengers of hydroxyl radicals with activity higher than the reference compound 6-hydroxy-2,5,7,8-tetramethylchroman-2-carboxylic acid (Trolox).
Competition of pteridine derivatives with DMSO for hydroxyl radicals
Hydroxyl radicals generated by the Fe^3+/ascorbic acid system were detected by determination of formaldehyde produced from the oxidation of DMSO, according to the procedure of Nash. The reaction mixture comprised ethylenediaminetetracetic acid (EDTA) (0.1 mM), Fe^3+ (167 μM), DMSO (33 mM) in phosphate buffer (50 mM, pH 7.4), ascorbic acid (10 mM) and the compound to be tested at 100 µM. After incubation at 37 °C for 30 min the mixture was quenched with aqueous trichloroacetic acid (17% w/v) (Table 2) and the percentage competition of the tested compounds with DMSO for hydroxyl radicals was determined (Table 2).

rat model of colitis = test: Acetic acid-induced colitis in the rat; assay type: in vivo, Fisher 344 rats; conditions: 0.01 mmol/kg intrarectally, 4% acetic acid
Protocol: LOX has also been associated with inflammation and ulcerative colitis. In the present study, a model for colitis involving intracolonic administration of aqueous 4% acetic acid in the rat was used, leading to acute inflammatory reaction. Treated rats presented partial to diffuse petechial bleeding, single erosion and limited ulceration indicating an overall healing effect of the compounds. Substituted pteridines presenting a satisfactory combination of activities 5a, 18a, 18d and 18f were tested using this in vivo model characterized by diffuse exfoliated mucosa as well as multiple and extended erosion and ulcers of the colon (Table 3). No mortality was encountered.
(§1) Fisher 344 rats (150-200 g) were housed in wire-mesh cages, given standard laboratory chow and tap water ad libitum and acclimatized for one week before experiments. Rats were randomly assigned to experimental groups. All in vivo experiments conform to the law for the protection of experimental animals (Republic of Greece) and are registered at the Veterinary Administration of the Republic of Greece in accordance with recognized guidelines on animal experimentation including Directive 2010/63/EU.
Induction of colitis
Rats were anesthetized using pentobarbital (50 mg/kg ip) prior to administration with 1 mL of either vehicle (0.9% w/v saline) or the compound under study at doses 0.01mmol/kg intrarectally via a polyethylene cannula (fitted to a 1 mL syringe) with the tip inserted approximately 8 cm into the anus. Following 30 min pretreatment, 1 ml of 4% acetic acid was introduced into the colon intrarectally and, after exposure for 60 s, the excess fluid was withdrawn. The luminal content was then expelled by instillation of air (10 mL), the ligature was removed and the abdomen was sutured. Both groups of rats were allowed to recover with food and water and the resulting injury was assessed after 48 h. The experiment was conducted using two groups, each containing 3 animals.
Assessment of colonic damage. Rats were weighed, inspected for the presence of diarrhea and sacrificed using diethyl ether. The colons were excised and opened longitudinally, rinsed with cold saline, pinned out and observed under a dissecting microscope. Colonic damage was scored using the system of MacPherson and Pfeiffer: 0 – normal appearance, 1- hyperaemia, 2 – patchy petechial bleeding, 3 – diffuse petechial bleeding, 4 – partial exfoliated mucosa or single erosion or ulceration, 5 – diffuse exfoliated mucosa or multiple erosions or ulceration. The presence or absence of adhesions between the colon and the surrounding tissues was recorded. Scoring of the colonic damage (Table 4) was carried out by an observer unaware of the treatment.

[3] = tested on: carrageenin-induced rat paw edema; test: Inhibition of carrageenin-induced rat paw edema; assay type: in vivo, Fisher 344 rats
Protocol: The incipient pattern of this edema is characterized by the effects of histamine and 5-hydroxytryptamine. After 1 h, reduction of edema in the rat paw achieved by the pteridine 18f was appreciably greater than the reduction induced by the reference compound indomethacin, a nonselective COX-inhibitor and commonly used nonsteroidal anti-inflammatory drug. Thus, 18f and some related pteridines offer significant protection against reactive oxygen species produced in a model of colitis, probably on account of their properties as antioxidants and radical scavengers.
as §1
Inhibition of carrageenin-induced edema
Edema was induced in the right hind paw of Fisher 344 rats (150-200 g) by intradermal injection of aqueous carrageenin (0.1 mL, 2%). Pregnant females were excluded from the study, but both sexes were used. Each group comprised 6-15 rats which were bred and housed under standard conditions and received a diet of commercial food pellets and water ad libitum during maintenance but were entirely fasted during the experiment period. Each compound (0.01 mmol/kg body weight) was suspended in water to which had been added a few drops of Tween 80 and then the mixture was ground in a mortar prior to being administered intraperitoneally and simultaneously with the carrageenin injection. Rats were euthanized 1 h after injection, and the difference between the weight of the injected and non-injected paws was calculated for each animal. The change in paw weight was compared with that in control animals (treated with water) and the inhibition of the edema was expressed as a percentage (Table 4). […]

CN1CCN(c2nc(NCc3cccs3)c3nccnc3n2)CC1 [Compound 18f, 2-(4-methylpiperazin-1-yl)-N-(thiophen-2-ylmethyl)pteridin-4-amine]
RA (%) 100μM 20 min ([1]; 20 min): 6% | RA (%) 100μM 60 min ([1]; 60 min): 4% | Hydroxyl radicals scavenged (%) [2]: 96% | Change in body weight (%) (rat model of colitis; assessed after 48 h): -10.7% | Score (levels 0–5) (rat model of colitis; colonic damage score, 48 h): All rats exhibited partial to diffuse exfoliated mucosa or single/multiple erosion or ulceration (4–5) | Greater reduction of edema in rat paw than indomethacin ([3]; 0.01 mmol/kg, relative to indomethacin): 60% | Reduction of rat paw edema after 1 h (%) ([3]; rat, 0.01 mmol/kg intraperitoneally, 1 h, mean of two experiments): 41% and 41 ^† %
